Measurements taken from EP2133323B1, “The production and use of 3,5-dicaffeoyl-4-malonylquinic acid” (I.R.B. Istituto Di Ricerche Biotecnologiche S.r.l., priority 2008, dated 2009).

What was measured:
[1] = Antioxidant activity by the DPPH method; type: biochemical
Text: The antioxidant activity of the compound 3,5-dicaffeoyl-4-malonylquinic acid compared to known molecules such as ascorbic acid and rutin, has been determined by means of the DPPH method, according to the instructions reported in J. Buenger et al.; International Journal of Cosmetic Science, 2006, 28: 135-146.

[2] = test system: metalloproteinases (MMP); experiment: Metalloproteinase inhibition, 3D model with type-1 collagen gel and BALB 3T3 fibroblasts (hydroxyproline content); type: cell-based; conditions: 48 hours; at higher concentrations collagen increases only through reduced cell number
Text: Metalloproteinase inhibitory activity has been evaluated by preparation of an in vitro assay known as the "3D model" envisaging the use of a type-1 collagen gel and BALB 3T3 fibroblast cells. In this assay model, fibroblasts acquire the property of secreting metalloproteinases (MMP), such as collagenase, gelatinase, elastase etc. through modulation by cytokines or other inflammatory mediators (Lim H., Kim HP, Planta Medica, 2007, 12:1267-1274). Balb 3T3 cells (4*10^6 cells/ms) are inoculated in a culture medium (DMEM + 10% FBS) containing a type 1 collagen 3D gel supplemented with increasing concentrations of the test compound. After incubation for 48 hours at 37°C in 5% CO2, the collagen content is measured by means of an indirect method (hydroxyproline content); in parallel, the effect of treatment on cell viability, or on the growth inhibitory effect, is also assessed. The result is expressed as the %age of hydroxyproline present in the 3D gel, compared to the control, or untreated, culture (NB: the collagen content in the absence of cells is reported as positive control). From the results obtained, it is evident that treatment with 3,5 dicaffeoyl-4-malonylquinic acid is effective up to a concentration of 400 µg/ml. For higher concentrations, the collagen content increases purely as a result of the reduced number of cells.

[3] = test system: type-2 HSV virus; experiment: Anti-HSV2 antiviral activity in Vero cell model (XTT read-out); type: cell-based, type-2 Herpes simplex virus (HSV) strain 333; conditions: at a concentration of 200 µg/ml; compared to positive control (infected, no test substance); MOI 0.1; 72 hours
Description: The antiviral activity of 3,5-dicaffeoyl-4-malonylquinic acid towards type-2 HSV virus has been assayed using a Vero cell model. The assay has been conducted using acyclovir as a comparator.
Vero cells have been seeded into 96 well plates at a concentration of 5x10^4 cells/well. After 4 hours incubation at 37°C in 5% CO2, the cells have been infected with strain 333 of the type-2 Herpes simplex virus (HSV) at a multiplicity of infection (MOI) of 0.1 infective viral particles/cell. Various concentrations of 3,5-dicaffeoyl-4-malonylquinic acid (CA1) have been added in triplicate to the cell monolayers. Some wells have been infected in the absence of test compound (POSITIVE CONTROL), others have not been infected and have not been treated with the test compound (NEGATIVE CONTROL), others still have been treated with various concentrations of acyclovir (ACYC), representing the comparator substance. The infected cells have then been incubated in medium plus 2% FBS for 72 hours. On completion of said incubation period, the medium has been removed from each well by aspiration. Following washing in PBS and aspiration, 50 µl of a solution consisting of […] and 1 mg/ml XTT has been added to each well. […] The optical density has been measured using an ELISA plate reader set at a wavelength of 450 nm and 630 nm.

[4] = UV absorption (sun-screen activity), spectrophotometry 250-400 nm; type: physicochemical
Text: This example reports the test to determine the UV absorption of the molecule 3,5-dicaffeoyl-4-malonylquinic acid compared to a commercially available molecule widely used as a sun screen (PARSOL MCX).
The compounds have been examined in an aqueous solution of: • 0.2 M phosphate buffer pH 5.0 • 0.1 M HCl solution at pH 1.0.
The pH 5.0 buffer has been selected as the condition used most frequently in the preparation of sun screens. The pH 1.0 solution has been examined in order to also observe the stability of the compounds at extreme pH values.
The analyses have been conducted using a Shimadzu model UV 1601 spectrophotometer, analysing the spectrum from 250 nm to 400 nm in order to ascertain the absorption of UVA and UVB.
The results report the absorption values at maximum wavelength (λ Max) and at 330 nm, this being the wavelength most frequently used for quantitative measurements for the products in question.
The values are expressed in: • specific extinction, corresponding to the extinction at the given λ for a solution at a concentration of 1.0 µg/mL. • Epsilon = the molar absorption, calculated using the formula Epsilon = A/C*L [formula] where A is the absorption value in mAU, C is the concentration of the solution in moles and L is the path length of the solutions in cm (always 1 cm).

[5] = test system: mouse B16F1 melanoma cells; experiment: Inhibition of MSH-stimulated melanin production (depigmenting activity); type: cell-based; conditions: 1 mg/mL, 100 nM MSH, 24 hours; for % inhibition vs AK: relative to kojic acid
Description: The bleaching activity of the compound obtained by cell culture of Centella asiatica has been determined by evaluating the inhibition of melanin production, stimulated by the addition of MSH (melanocyte stimulating hormone) in mouse B16F1 melanoma cells. The test has been prepared by seeding mouse B16F1 melanoma cells in DMEM culture medium + 10% FBS in 25 cm^2 flasks. On reaching 80% confluency, the culture medium has been replaced with conditioned medium (containing 100 nM MSH and the test compounds). The cells in the conditioned medium have been incubated for 24 hours at 37°C and 5% CO2. On termination of incubation, the cells have been washed twice with PBS and then detached using a Trypsin-EDTA solution. After washing twice with PBS, the detached cells have been resuspended in the same solution. A small aliquot has been removed from the suspension for the purpose of conducting the MTT cell viability test, while the remainder has been used to extract the cell melanin content. The melanin content has been determined by spectrophotometric measurements at 405 nm, and calculated by means of a calibration curve obtained using a melanin standard. The optical density value obtained has been normalised for the number of viable cells obtained by means of the MTT test. The percentage inhibition of melanin production has been calculated from the percentage ratio between the value obtained from the cells treated with the extracts, and the value obtained from the control cells, treated with MSH alone. The results obtained from testing the compound at a concentration of 1 mg/ml compared to kojic acid at the same concentration, are reported in table 8 below: TABLE 8

[6] = test system: DNBS induced colitis model; experiment: DNBS induced colitis model in rats (anti-inflammatory activity); type: in vivo, Sprague-Dawley rats; conditions: four days after DNBS
Text: Evaluation of the anti- inflammatory activity of 3, 5-dicaffeoyl-4-malonylquinic acid has been determined on an in vivo induced colitis model. Colitis has been induced in rats using a colon inflammation model, stimulated by DNBS ([…] acid). After 4 days of induction of inflammation, the following parameters have been evaluated: determination of colon damage by means of morphological and histological analysis; determination of myeloperoxidase activity and determination of body weight. The animals used have been subdivided into four experimental groups (10 Sprague-Dawley rats weighing 200-250 g in each group) : • one control group, to which only carrier has been administered (CTR); • one group, to which DNBS plus carrier has been administered (DNBS); • one group, to which DNBS and 3,5-dicaffeoyl-4-malonylquinic acid has been administered: the compound has been administered orally at a concentration of 2 mg/kg for 4 consecutive days following the administration of DNBS; • one group, to which DNBS and 3,5-dicaffeoyl-4-malonylquinic acid has been administered: the compound has been administered orally at a concentration of 0.2 mg/kg for 4 consecutive days following the administration of DNBS.
Four days after the administration of DNBS, the following investigations have been conducted: • evaluation of colon damage by means of morphological and histological analysis (a score is assigned on the basis of the damage observed); • evaluation of myeloperoxidase activity and • determination of body weight.

[7] = test system: Staphylococcus aureus ATCC6538; experiment: Multiple dilution antimicrobial assay, CFU count in culture-broth; type: cell-based
Description: (§1) With the aim of identifying any potential antimicrobial activity in the compound 3,5-dicaffeoyl-4-malonylquinic acid, microbiological assays, generally known as multiple dilution assays, have been prepared. The results obtained from said assays have shown the antimicrobial activity of the compound against the following strains: • Staphylococcus aureus ATCC6538 • Malassezia furfur DSMZ4167
(§2) The compound has been tested at concentrations of 5 mg/ml, 2 mg/ml and 1 mg/ml.
(§3) The microbial strains used for testing have been inoculated into culture-broth (in Tryptone soy broth medium, for Malassezia furfur the culture medium has been supplemented with 2 ml/100 ml of olive oil) containing the test compound at the concentrations described above. In parallel with these tests, culture broths containing the microbial strain alone have been prepared (controls). The culture-broths have been incubated at 30°C for a period of 7 days. Samples of the various culture-broths have been taken at 0 and 7 days, with the aim of counting the number of CFU/ml in relation to the various microbial strains, by plating the cultures on solid medium. A certain number of serial dilutions have been prepared for each sample in order to determine the microbial load of each culture-broth. Each dilution has been assayed in triplicate on solid medium. Then number of CFUs reported in the table is the mean of the counts performed on the triplicate assays. Table 4: the effect of 3,5-dicaffeoyl-4-malonylquinic acid on the growth of Staphylococcus aureus ATCC 6538

[8] = test system: Malassezia furfur DSMZ4167; experiment: as above; type: cell-based; conditions: for T7d: sample at 7 days, 30°C
Description: as §1, §2, §3

[9] = pH 1.0, second line, printed beside 326 nm (330 nm line empty)
[10] = pH 5.0 (0.2 M phosphate buffer), λ Max line
[11] = pH 5.0, second line, printed beside 325 nm (330 nm line empty)
[12] = DNBS + 0.2 mg/kg orally for 4 consecutive days
[13] = DNBS + 2 mg/kg orally for 4 consecutive days

O=C(O)CC(=O)OC1C(OC(=O)/C=C/c2ccc(O)c(O)c2)CC(O)(C(=O)O)CC1OC(=O)/C=C/c1ccc(O)c(O)c1 (stereo not shown) [3,5-dicaffeoyl-4-malonylquinic acid]
IC50 [1]: 3760 nM | concentration up to which treatment is effective (collagen content, hydroxyproline) [2]: ≤ 400 µg/mL | antiviral activity [3]: good antiviral activity | Epsilon ([4]; pH 1.0 (0.1 M HCl), λ Max line): 28.539 | Spec. abs. (1 µg/ml) ([4]; pH 1.0 (0.1 M HCl), λ Max line): 47.9 mAU | Epsilon [4, 9]: 28.138 | Spec. abs. (1 µg/ml) [4, 9]: 47.2 mAU | Epsilon [4, 10]: 30.602 | Spec. abs. (1 µg/ml) [4, 10]: 51.3 mAU | Epsilon [4, 11]: 29.972 | Spec. abs. (1 µg/ml) [4, 11]: 50.3 mAU | % inhibition ([5]; melanin production): 33.8% | % inhibition vs AK [5]: 48% | Histological score [6, 12]: 1.60 | Myeloperoxidase activity [6, 12]: 513.00 U/g fresh weight | Histological score [6, 13]: 1.55 | Myeloperoxidase activity [6, 13]: 486.90 U/g fresh weight | T7d ([7]; 5mg/ml, sample at 7 days, 30°C): <100 CFU/ml | antimicrobial activity ([7]; at a concentration of 5 mg/ml): exerts antimicrobial activity | T7d ([8]; 2 mg/ml): <100 CFU/ml | T7d ([8]; 5mg/ml): <100 CFU/ml | antimicrobial activity ([8]; at a concentration of 2 mg/ml): exerts antimicrobial activity

O=C1O[C@H]([C@@H](O)CO)C(O)=C1O [Ascorbic acid, reference compound]
IC50 [1]: 1000 nM

O=c1cc(CO)occ1O [Kojic acid, reference compound]
inhibition at 1000 µg/mL ([5]; Mus musculus, B16-F1, melanin production): 70% | % inhibition vs AK [5]: 100%
